Values belong to the compound of their own block, whether it stands above or below them.
Tests used:
[1] = tested on: HCT-116; assay: Cytotoxicity against human HCT-116 cells; type: functional, cell-based
[2] = tested on: MCF7; assay: Antiproliferative activity against human MCF7 cells by SRB assay; type: functional, cell-based
[3] = tested on: A549; assay: Antitumor activity against human A549 cells xenografted in mouse model assessed as tumor growth inhibition relative to control; type: functional; set-up: scale not given: the % may be the effect or the level left
[4] = tested on: HepG2; assay: Anticancer activity against human HepG2 cells incubated for 24 hrs by SRB method; type: functional, cell-based; conditions: HepG2, 24 h
[5] = tested on: MCF7; assay: Anticancer activity against human MCF7 cells incubated for 24 hrs by SRB method; type: functional, cell-based; conditions: MCF7, 24 h
[6] = tested on: HCT-116; assay: Anticancer activity against human HCT-116 cells incubated for 24 hrs by SRB method; type: functional, cell-based; conditions: HCT-116, 24 h
[7] = tested on: HepG2; assay: Potency index, ratio of doxorubicin IC50 to compound IC50 for anticancer activity against human HepG2 cells; type: functional
[8] = tested on: MCF7; assay: Potency index, ratio of doxorubicin IC50 to compound IC50 for anticancer activity against human MCF7 cells; type: functional
[9] = tested on: HCT-116; assay: Potency index, ratio of doxorubicin IC50 to compound IC50 for anticancer activity against human HCT-116 cells; type: functional
[10] = tested on: MCF7; assay: Cytotoxicity against human MCF7 cells; type: functional, cell-based
[11] = tested on: HepG2; assay: Cytotoxicity against human HepG2 cells; type: functional, cell-based
[12] = tested on: HeLa; assay: Antiproliferative activity against human HeLa cells measured after 48 hrs by MTT assay; type: functional, cell-based
[13] = tested on: HepG2; assay: Antiproliferative activity against human HepG2 cells measured after 48 hrs by MTT assay; type: functional, cell-based; conditions: HepG2, 48 h
[14] = tested on: MCF7; assay: Antiproliferative activity against human MCF7 cells measured after 48 hrs by MTT assay; type: functional, cell-based; conditions: MCF7, 48 h
[15] = Resistance factor, ratio of IC50 for human K562/VCR cells to IC50 for K562 cells; type: functional; conditions: time 72 hrs
[16] = Antiproliferative activity against human SUIT-2 cells; type: functional, cell-based
[17] = Inhibition of cell migration of human SUIT-2 cells; type: functional, cell-based
[18] = tested on: HeLa; assay: Cytotoxicity against human HeLa cells; type: functional, cell-based
[19] = tested on: A549; assay: Cytotoxicity against human A549 cells assessed as reduction in cell growth; type: functional, cell-based
[20] = tested on: Panel NCI-60 (60 carcinoma cell lines); assay: Antiproliferative activity against human Panel NCI-60 (60 carcinoma cell lines) cells; type: functional
[21] = tested on: UO-31; assay: Antiproliferative activity against human UO-31 cells; type: functional
[22] = tested on: HeLa; assay: Antiproliferative activity against human HeLa cells measured after 48 hrs by CCK-8 method; type: functional, cell-based
[23] = target: Histone deacetylase 4 (Homo sapiens, UniProt P56524); assay: Inhibition of human recombinant HDAC4 using Boc-Lys(Ac)-AMC as substrate preincubated for 15 mins followed by substrate addition and measured after 60 mins by fluorescence based analysis
Histone deacetylase 4, sequence (P56524 whole entry): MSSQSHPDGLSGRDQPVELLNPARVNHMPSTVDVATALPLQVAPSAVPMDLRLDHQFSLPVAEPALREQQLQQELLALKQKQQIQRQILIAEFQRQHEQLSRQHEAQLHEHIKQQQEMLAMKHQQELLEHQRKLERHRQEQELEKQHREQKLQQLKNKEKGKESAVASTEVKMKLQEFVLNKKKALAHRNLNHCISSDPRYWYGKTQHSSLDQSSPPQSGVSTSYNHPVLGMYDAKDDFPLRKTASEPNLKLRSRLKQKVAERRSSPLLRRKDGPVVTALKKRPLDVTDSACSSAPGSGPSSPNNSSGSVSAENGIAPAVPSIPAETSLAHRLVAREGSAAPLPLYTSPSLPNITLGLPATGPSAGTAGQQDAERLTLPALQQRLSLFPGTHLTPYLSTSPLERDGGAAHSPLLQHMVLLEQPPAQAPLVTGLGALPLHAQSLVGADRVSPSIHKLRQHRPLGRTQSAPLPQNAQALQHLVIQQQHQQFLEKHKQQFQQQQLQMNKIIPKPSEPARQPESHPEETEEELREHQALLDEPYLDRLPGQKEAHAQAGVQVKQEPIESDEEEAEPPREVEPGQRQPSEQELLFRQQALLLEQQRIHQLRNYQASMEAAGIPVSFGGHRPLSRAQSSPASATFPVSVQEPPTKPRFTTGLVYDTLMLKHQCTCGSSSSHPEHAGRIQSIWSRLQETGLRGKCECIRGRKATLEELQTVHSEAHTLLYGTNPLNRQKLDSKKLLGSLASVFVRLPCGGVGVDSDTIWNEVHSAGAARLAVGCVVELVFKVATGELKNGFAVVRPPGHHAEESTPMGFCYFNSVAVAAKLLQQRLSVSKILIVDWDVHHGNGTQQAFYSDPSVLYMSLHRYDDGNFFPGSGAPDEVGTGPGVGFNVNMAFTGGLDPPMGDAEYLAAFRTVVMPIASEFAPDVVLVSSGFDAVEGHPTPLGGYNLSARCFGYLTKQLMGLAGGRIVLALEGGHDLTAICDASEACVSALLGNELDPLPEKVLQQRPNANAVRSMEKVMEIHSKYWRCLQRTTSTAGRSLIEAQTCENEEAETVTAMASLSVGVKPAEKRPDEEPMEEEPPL

[24] = target: Bromodomain-containing protein 4 (Homo sapiens) (UniProt O60885); assay: Inhibition of GST tagged BRD4 (unknown origin) at 10 uM by HTRF assay relative to control
[25] = tested on: THP-1; assay: Antiproliferative activity against human THP-1 cells incubated for 24 hrs by trypan blue reagent based analysis; type: functional, cell-based; conditions: THP-1, 24 h
[26] = tested on: MCF7; assay: Cytotoxicity against human MCF7 cells assessed as reduction in cell growth measured after 2 days by MTT assay; type: functional, cell-based; conditions: MCF7, 48 h
[27] = Cytotoxicity against human Triple-negative breast cancer cells; type: functional, cell-based; conditions: Triple-negative breast cancer cell
[28] = tested on: HCT-15; assay: Antiproliferative activity against human HCT-15 cells; type: functional, cell-based
[29] = tested on: A549; assay: Cytotoxicity against human A549 cells; type: functional, cell-based
[30] = tested on: MDA-MB-231; assay: Cytotoxicity against human MDA-MB-231 cells measured after 72 hrs; type: functional, cell-based; conditions: MDA-MB-231, 72 h
[31] = tested on: NCI-H460; assay: Growth inhibition of human NCI-H460 cells; type: functional
[32] = tested on: BXPC-3; assay: Growth inhibition of human BXPC-3 cells; type: functional
[33] = tested on: PANC-1; assay: Growth inhibition of human PANC-1 cells; type: functional
[34] = tested on: HeLa; assay: Anticancer activity against human HeLa cells by MTT assay; type: functional, cell-based; conditions: pooled result: one value given for 4 cell lines, strains, targets or settings
[35] = tested on: DU-145; assay: Antiproliferative activity against human DU-145 cells; type: functional, cell-based
[36] = target: Tubulin; assay: Inhibition of tubulin polymerization (unknown origin); type: protein-complex assay, Homo sapiens
[37] = tested on: MCF7; assay: Antiproliferative activity against human MCF7 cells; type: functional, cell-based

Compound: Cn1cc(-c2nc(-c3cn(C)c4ncc(Cl)cc34)no2)c2cc(Br)ccc21
IC50 [1]: 1.93 µM

IC50 [2]: 22.3 µM
Compound: COc1ccc2c(c1)c(/C=N/NC(=O)Cc1c[nH]c3ncccc13)cn2Cc1ccc(Br)cc1

Compound: COc1cccc2c1C(=O)c1c(O)c3c(c(O)c1C2=O)C[C@@](O)(C(=O)CO)C[C@@H]3O[C@H]1C[C@H](N)[C@H](O)[C@H](C)O1 [DOXORUBICIN]
Activity [3]: 53.3%

IC50 [4]: < 10 µM
IC50 [5]: < 10 µM
IC50 [6]: < 10 µM
Compound: CCOC(=O)/C(C#N)=C1/C(=O)Nc2ccc(S(=O)(=O)N3CCOCC3)cc21

IC50 [2]: 22.3 µM
Compound: N#Cc1ccc(Cn2cc(/C=N/NC(=O)Cc3c[nH]c4ncccc34)c3cc(Br)ccc32)cc1

IC50 [2]: 22.3 µM
Compound: O=C(Cc1c[nH]c2ncccc12)N/N=C/c1cn(Cc2ccc(Cl)cc2Cl)c2ccc(Br)cc12

Compound: O=c1nc(-c2cn(S(=O)(=O)c3ccccc3)c3ccccc23)cc(-c2cccc(O)c2)[nH]1
Ratio IC50 [7]: >8
Ratio IC50 [8]: >8
Ratio IC50 [9]: >8

IC50 [2]: 22.3 µM
Compound: O=C(Cc1c[nH]c2ncccc12)N/N=C/c1cn(Cc2ccc(Cl)cc2Cl)c2ccccc12

Compound: O=C(Nc1cc([N+](=O)[O-])cc([N+](=O)[O-])c1)c1coc(-c2c[nH]c3cccnc23)n1
IC50 [10]: 0.034 µM

Compound: Cn1cc(C2=C(C#N)C(c3ccc(Cl)cc3)c3c(nc(N)[nH]c3=O)N2)c2ccccc21 (configuration not stated)
IC50 [11]: 3.57 µM

IC50 [4]: < 10 µM
IC50 [5]: < 10 µM
IC50 [6]: < 10 µM
Compound: O=C(O)C1=C2C(=Nc3ccc(S(=O)(=O)N4CCOCC4)cc32)NC1=O

IC50 [12]: 3.7 µM
IC50 [13]: 8 µM
IC50 [14]: 19.9 µM
Compound: Nc1c(C(=O)c2cccc3ccccc23)[nH]c2ncccc12

Compound: COc1cnc2c(c1)c(-c1noc(-c3cn(C)c4ccc(Br)cc34)n1)cn2C
IC50 [1]: 3.55 µM

Compound: COc1cc([C@@H]2c3cc4c(cc3[C@H](OC(=O)Cc3ccc5cc[nH]c5c3)[C@H]3COC(=O)[C@H]23)OCO4)cc(OC)c1OC
Ratio IC50 [15]: 2.27

IC50 [17]: < 10 µM
Compound: COc1ccc(OC)c(-c2cn3nc(-c4cn(C)c5ccc(Br)cc45)sc3n2)c1
IC50 [16]: < 10 µM

Compound: COc1cc(C(c2c[nH]c3ccccc23)c2c[nH]c3ccccc23)cc(Cl)c1O
IC50 [18]: 0.37 µM
IC50 [19]: 0.34 µM

IC50 [17]: < 10 µM
Compound: COc1ccc(OC)c(-c2cn3nc(-c4c[nH]c5ccc(Br)cc45)sc3n2)c1
IC50 [16]: < 10 µM
GI50 [20]: 10.3 µM
GI50 [21]: 1.67 µM

Compound: O=C(Nc1ccc(Br)cc1)c1coc(-c2c[nH]c3cccnc23)n1
IC50 [10]: 0.36 µM

Compound: CS(=O)(=O)n1cc(-c2cc(-c3cccc(O)c3)[nH]c(=N)n2)c2ccccc21
Ratio IC50 [7]: >8
Ratio IC50 [8]: >8
Ratio IC50 [9]: >8

IC50 [2]: 22.3 µM
Compound: COc1ccc2c(c1)c(/C=N/NC(=O)Cc1c[nH]c3ncccc13)cn2Cc1ccc(F)cc1F

IC50 [22]: 0.015 µM
Compound: COc1cc(/C=C/c2ncc([N+](=O)[O-])n2CCOC(=O)c2c[nH]c3ccccc23)cc(OC)c1OC

Compound: Cc1noc(C)c1-c1ccc2c(c1)c(Cc1ccc(F)cc1)cn2CCCCCCCC(=O)NO
IC50 [23]: 0.005 µM
inhibition [24]: 88%
IC50 [25]: 15.5 µM

Compound: Nc1ccccc1Oc1cccc(C(c2c[nH]c3ccccc23)c2c[nH]c3ccccc23)c1
IC50 [26]: 23.6 µM

Compound: COc1cc2cc(C(=O)N3CCC=C(Cl)C3=O)n(C)c2c(OC)c1OC
Activity [3]: 54.6%

IC50 [4]: < 10 µM
IC50 [5]: < 10 µM
IC50 [6]: < 10 µM
Compound: N#CC(C#N)=C1C(=O)Nc2ccc(S(=O)(=O)N3CCOCC3)cc21

Compound: Cc1cccc2c(C(c3ccc(O)cc3)c3c[nH]c4c(C)cccc34)c[nH]c12
IC50 [27]: 10 µM

IC50 [28]: 0.92 µM
Compound: COc1ccc(CC/N=C2\NC(=O)/C(=C/c3c[nH]c4ccc(Br)cc34)S2)cc1

Compound: CNC(=S)N/N=C/c1c(-c2ccc(OC)cc2)[nH]c2ccccc12
IC50 [29]: 12.5 µM
Ratio IC50 [15]: 2.27

Compound: CCCCCc1cc2cc(C)cc(/N=C/c3[nH]c(C)c(CCCCC)c3C)c2[nH]1
IC50 [30]: 4.2 µM

Compound: Nc1ccccc1Oc1cccc(C(c2c[nH]c3ccc(Cl)cc23)c2c[nH]c3ccc(Cl)cc23)c1
IC50 [26]: 34.8 µM

Compound: CS(=O)(=O)n1cc(-c2cc(-c3cccc(O)c3)[nH]c(=O)n2)c2ccccc21
Ratio IC50 [7]: >8
Ratio IC50 [8]: >8
Ratio IC50 [9]: >8

IC50 [4]: < 10 µM
IC50 [5]: < 10 µM
IC50 [6]: < 10 µM
Compound: CC(=O)Nc1cccc(C(=O)/C=C2\C(=O)Nc3ccc(S(=O)(=O)N4CCOCC4)cc32)c1

GI50 [31]: 7.62 µM
GI50 [32]: 7.62 µM
GI50 [33]: 7.62 µM
Compound: C[C@H]1NC(=O)[C@@H](Cc2c[nH]c3ccccc23)n2c1nc1ccccc1c2=O [FUMIQUINAZOLINE G]

IC50 [34]: 9.42 µM
Compound: CC(C)(C)OC(=O)N1CCC2C(C1)c1cc(Br)ccc1N2S(=O)(=O)c1ccc(Cl)cc1 (configuration not stated)

IC50 [35]: 9.8 µM
Compound: COc1cc([C@@H]2c3cc4c(cc3[C@@H](O[C@@H]3O[C@@H]5CO[C@@H](C)O[C@H]5[C@H](O)[C@H]3O)[C@H]3COC(=O)[C@H]23)OCO4)cc(OC)c1O [ETOPOSIDE]

IC50 [4]: < 10 µM
IC50 [5]: < 10 µM
IC50 [6]: < 10 µM
Compound: COC(=O)c1ccc(C(=O)/C=C2\C(=O)Nc3ccc(S(=O)(=O)N4CCOCC4)cc32)cc1

Compound: N=c1nc(-c2cn(S(=O)(=O)c3ccccc3)c3ccccc23)cc(-c2cccc(O)c2)[nH]1
Ratio IC50 [7]: >8
Ratio IC50 [8]: >8
Ratio IC50 [9]: >8

IC50 [36]: 3.89 µM
IC50 [37]: 2.42 µM
Compound: O=C(c1nnc(Nc2ccccc2F)o1)c1c[nH]c2ccccc12

Compound: CS(=O)(=O)n1cc(-c2cc(-c3cccc(O)c3)[nH]c(=S)n2)c2ccccc21
Ratio IC50 [7]: >8
Ratio IC50 [8]: >8
Ratio IC50 [9]: >8
